The record followed here is PMC6158327, “Negative Allosteric Modulators of mGlu7 Receptor as Putative Antipsychotic Drugs” (Frontiers in Molecular Neuroscience, 2018).

One data set deals with T1, mGlu7 receptor (Homo sapiens, UniProt Q14831).
T1 construct: expressed in transfected cells
Nature of the data set: HTRF cAMP assay: potentiation of forskolin action without agonist (inverse agonist properties). Type of data set: cell-based. The conditions noted are these: T-REx 293 cells, 5 μM forskolin, n = 3, read-out: IC50, potentiation of forskolin action (elevating cAMP concentration), inverse agonist properties. The procedure:
A homogeneous time-resolved fluorescence (HTRF) cAMP dynamic 2 (Cisbio, Codolet, France) assay was performed as previously described ([Chruścicka et al., 2015]) with recombinant cell lines. Briefly, HEK 293 T-REx cells stably expressing mGlu7 receptor, were collected and suspended in Hanks-HEPES buffer. The cell suspension was added to compounds solution with 5 μM of forskolin (final concentration). After 5 min incubation in 37°C, 5 μl of cAMP-d2 conjugate in lysis buffer was added and mixed with the 10 μl cell suspension by means of an automated pipetting system (Tecan Evo 200, Tecan, Mannedorf, Switzerland). Next, 5 μl anti-cAMP cryptate conjugate was added and the fluorescence at 620 and 665 nm was read after 1 h (Tecan Infinite M1000). The results are shown as the 665 nm/620 nm ratio multiplied by 10^4. The detected signal was inversely proportional to the concentration of cAMP in the sample. […] Each experiment was performed three times (n = 3), and each data point was in triplicate.
Both compounds dose-dependently potentiated forskolin action, elevating cAMP concentration in the T-REx 293 cells (Figure 2B). […] This effect was not observed for an antagonist of mGluR7 – XAP044.
(In TR-FRET formats the signal depends on donor and acceptor labels being close together.)

The nature of data set [1]: Metabolic stability (microsomes, mice). Type of data set: in vitro ADME. The settings on record: for microsomal CLint: mouse, liver microsomes. For orientation: Microsomes from liver hold many membrane-bound enzymes, among them those of drug oxidation.
A further data set addresses T2, Cytochrome P450 1A2 (Homo sapiens, UniProt P05177).
T2 sequence (P05177 1-516): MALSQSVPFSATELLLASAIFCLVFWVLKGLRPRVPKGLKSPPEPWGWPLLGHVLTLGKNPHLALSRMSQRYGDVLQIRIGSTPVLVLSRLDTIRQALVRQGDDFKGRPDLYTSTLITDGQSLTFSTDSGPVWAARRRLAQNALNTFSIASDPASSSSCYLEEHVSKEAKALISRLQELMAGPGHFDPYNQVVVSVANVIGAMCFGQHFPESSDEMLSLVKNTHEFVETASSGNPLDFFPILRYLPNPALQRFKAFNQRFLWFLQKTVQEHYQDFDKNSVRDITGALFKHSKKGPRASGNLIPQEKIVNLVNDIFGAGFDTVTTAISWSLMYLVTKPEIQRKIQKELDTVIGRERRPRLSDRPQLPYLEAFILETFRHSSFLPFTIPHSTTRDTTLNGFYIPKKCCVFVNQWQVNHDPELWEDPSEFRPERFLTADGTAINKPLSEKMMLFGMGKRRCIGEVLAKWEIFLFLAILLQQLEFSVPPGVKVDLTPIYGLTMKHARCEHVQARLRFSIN
Nature of the data set: Cytochrome P450 inhibition, 1A2. Type of data set: in vitro ADME.

Another data set concerns the target Cytochrome P450 2D6 (Homo sapiens, UniProt P10635). Nature of the data set: Cytochrome P450 inhibition, 2D6. Type of data set: in vitro ADME.
The test system of data set [2] is field potentials in frontal cortical slices. Nature of the data set: Electrophysiology: field potentials in frontal cortical slices, WILD mice. The settings on record: for Before-after effect of the drug on FP amplitude: WILD group; for S (factor proportional to the slope of the curve) / Uh (stimulation intensity evoking FP of half-maximum amplitude) / Vmax (maximum FP amplitude, Boltzmann fit): slices from WILD mice, after 20 min drug superfusion. Details: species or system C57BL/6J WT mice. The source says: (§1) Mice (wild and KO, approx. 25 g) were housed under a controlled light/dark cycle (light on: 0700–1900) and had free access to standard food and tap water. Mice were anesthetized with isoflurane (Aerrane, Baxter) decapitated, their brains were dissected and immersed in an ice-cold artificial cerebrospinal fluid (ACSF) of the following composition (in mM): NaCl (130), KCl (5), CaCl2 (2.5), MgSO4 (1.3), KH2PO4 (1.25), NaHCO3 (26), and glucose (10), bubbled with a mixture of 95% O2/5% CO2 to pH 7.4. Frontal cortical slices (bregma 1.9–1.4, 380 μm) were cut in a coronal plane using a vibrating microtome and they were stored at 32°C. A single slice was next transferred to the recording chamber (32°C ± 0.5°C) and superfused at 2.5 ml/min with a ACSF.
(§2) A bipolar stimulating electrode (FHC) was placed approx. 2 mm lateral to the midline and approx. 1.0 mm below the pial surface (in layer V) (Figure 1). Stimuli (duration: 0.2 ms) were applied at 0.033 Hz using a constant-current stimulus isolation unit (WPI). Field potentials (FPs) were recorded using glass micropipettes filled with ACSF (1–3 MΩ), which were placed approx. 0.2 mm below the cortical surface (in layer II/III). FPs were amplified (Axoprobe 1A, Axon Instruments), A/D converted at 10 kHz and stored using Micro1401 interface and Signal 4 software (CED).
(§3) The stimulus–response curves obtained for each slice were fit with the Boltzmann equation: Vi = Vmax/(1 + exp[(u - Uh)/-S]), where Vmax is the maximum FP amplitude; u is the stimulation intensity; Uh is the stimulation intensity evoking FP of half-maximum amplitude; S is the factor proportional to the slope of the curve; “exp” is exponentiation – mathematical operation. The results are expressed as the means ± SEM. Statistical analyses were carried out using t-test ([Tokarski et al., 2011]).
(§4) For each slice, at the beginning of the experiment an input-output curve was generated in ACSF. A stimulus-response (input-output) curve was made for each slice. […] One response was recorded at each stimulation intensity. […] Statistical analyzes were carried out using paired t-test and ANOVA.

Data set [3] has the same test system. Nature of the data set: Electrophysiology: field potentials in frontal cortical slices, mGlu7 KO mice. The settings on record: for Before-after effect of the drug on FP amplitude: KO animals; for S (factor proportional to the slope of the curve) / Uh (stimulation intensity evoking FP of half-maximum amplitude) / Vmax (maximum FP amplitude, Boltzmann fit): slices from mGlu7 KO mice, after 20 min drug superfusion.
Excerpt: as §1, §2, §3, §4

Data set [4] concerns DOI-induced head twitches. Nature of the data set: DOI-induced head twitches. The conditions noted are these: mice; for Effect on DOI-induced head twitches, acute: 30 min before DOI (2.5 mg/kg). It is filed as in vivo, Albino Swiss mice. Here is the method: The experiment was performed according to previously described procedure ([Wierońska et al., 2012], [2013]). Immediately after a 30 min acclimatization period, DOI (2.5 mg/kg, i.p.) was administered in order to induce head twitches. The number of head twitches was then counted for 20 min. […]

The test system of data set [5] is MK-801-induced social interaction deficits. Nature of the data set: Social interaction test (MK-801-induced deficits). The settings on record: 30 min before MK-801 (0.3 mg/kg), mice. It is filed as in vivo, Albino Swiss mice. The procedure:
The method was adapted from [de Moura Linck et al., 2008] and [Woźniak et al., 2016b]. After the 2-day habituation trial (10 min/day) a pair of mice was placed in the open field for 5 min. The social interactions between two mice were determined based on the total time spent participating in social behavior such as genital investigation, sniffing, chasing, and fighting each other. The total number of social episodes was also measured. The test was video-recorded and viewed by a trained observer.

T1 sequence (Q14831 35-915): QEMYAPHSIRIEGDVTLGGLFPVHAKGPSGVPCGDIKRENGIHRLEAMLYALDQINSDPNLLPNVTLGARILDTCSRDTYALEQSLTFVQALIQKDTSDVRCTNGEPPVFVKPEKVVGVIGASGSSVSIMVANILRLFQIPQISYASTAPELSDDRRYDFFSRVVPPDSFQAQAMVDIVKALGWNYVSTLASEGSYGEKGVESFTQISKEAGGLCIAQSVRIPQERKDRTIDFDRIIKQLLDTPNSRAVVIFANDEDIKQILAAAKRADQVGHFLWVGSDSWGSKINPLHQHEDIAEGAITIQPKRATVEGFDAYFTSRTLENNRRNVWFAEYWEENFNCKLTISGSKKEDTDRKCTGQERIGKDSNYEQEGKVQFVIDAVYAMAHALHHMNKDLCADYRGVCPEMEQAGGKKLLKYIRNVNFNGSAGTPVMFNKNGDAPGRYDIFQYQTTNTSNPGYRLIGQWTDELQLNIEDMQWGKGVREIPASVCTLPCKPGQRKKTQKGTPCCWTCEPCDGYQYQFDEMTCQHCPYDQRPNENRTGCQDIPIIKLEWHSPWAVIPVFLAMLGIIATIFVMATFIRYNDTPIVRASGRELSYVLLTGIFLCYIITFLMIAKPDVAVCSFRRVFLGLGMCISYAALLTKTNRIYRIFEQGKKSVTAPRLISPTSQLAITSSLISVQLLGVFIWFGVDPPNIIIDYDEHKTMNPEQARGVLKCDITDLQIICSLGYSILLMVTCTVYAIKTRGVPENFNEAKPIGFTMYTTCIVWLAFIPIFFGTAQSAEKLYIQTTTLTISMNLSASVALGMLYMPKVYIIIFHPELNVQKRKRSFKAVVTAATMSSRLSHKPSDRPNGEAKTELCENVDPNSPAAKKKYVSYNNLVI
Sequence of Cytochrome P450 2D6 (P10635 whole entry, the tested form may be a part): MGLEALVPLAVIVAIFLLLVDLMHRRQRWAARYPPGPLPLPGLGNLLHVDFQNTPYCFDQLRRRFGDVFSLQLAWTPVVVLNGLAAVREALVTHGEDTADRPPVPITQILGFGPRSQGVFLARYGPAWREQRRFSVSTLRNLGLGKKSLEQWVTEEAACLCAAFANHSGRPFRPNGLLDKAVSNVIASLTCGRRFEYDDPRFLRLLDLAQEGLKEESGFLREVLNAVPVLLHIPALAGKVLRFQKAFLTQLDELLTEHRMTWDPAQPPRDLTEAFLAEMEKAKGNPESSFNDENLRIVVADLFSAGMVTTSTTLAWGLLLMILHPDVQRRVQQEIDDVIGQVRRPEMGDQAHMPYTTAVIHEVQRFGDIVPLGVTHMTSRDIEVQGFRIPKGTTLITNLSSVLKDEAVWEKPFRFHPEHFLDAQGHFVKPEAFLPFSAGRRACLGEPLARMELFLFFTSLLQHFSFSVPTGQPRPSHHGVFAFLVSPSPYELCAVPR

The term microsomal CLint denotes a measure of how fast metabolising enzymes remove a compound, apart from limits set by blood flow. Take `CCc1nc2c(o1)CC(c1ccc(C)cc1C)CC2=O` (stereo not shown) [ADX71743, 6-(2,4-Dimethylphenyl)-2-ethyl-6,7-dihydro-4(5H)-benzoxazolone]: the IC50 on mGlu7 receptor is 0.22 µM. In data set [1], the “Metabolic stability (microsomes, mice)” value was 0.01 and the intrinsic metabolic clearance (microsomal CLint) amounted to 500 µL/min/mg. The IC50 on Cytochrome P450 1A2 is > 10 µM. The IC50 against Cytochrome P450 2D6 was > 10 µM. In addition, in data set [2], the “Before-after effect of the drug on FP amplitude” value (“Before-after effect of the drug” for short) was 116%; the “S (factor proportional to the slope of the curve)” value was 6.53 ± 0.3; the “Uh (stimulation intensity evoking FP of half-maximum amplitude)” value (“Uh” below) is recorded as 26.07 ± 1.3; the “Vmax (maximum FP amplitude, Boltzmann fit)” value (“Vmax” below) is recorded as 2.531 ± 0.1^∗∗∗. Moreover, in data set [3], the “Before-after effect of the drug” value was determined as 106%; the “S (factor proportional to the slope of the curve)” value came to 7.12 ± 0.41; the “Uh” value stood at 26.06 ± 1.18; the “Vmax” value is listed as 2.36 ± 0.18. In addition, the “Effect on DOI-induced head twitches, chronic (10 days) administration” value (“Effect … (10 days) administration” below) in data set [4] (2.5 mg/kg) is “statistical effect”. Also, the “Effect … (10 days) administration” value in data set [4] (5 mg/kg) is “statistical effect”. In data set [5] (5 mg/kg i.p.), the “Effect on MK-801-induced reduction of duration of social interaction” value is listed as “reversed the effect of MK-801” and the “Effect on MK-801-induced reduction of number of social episodes” value was “reversed the effect of MK-801”. Moreover, in data set [5] (15 mg/kg i.p.), the “Effect on MK-801-induced reduction of duration of social interaction” value is “reversed the effect of MK-801” and the “Effect on MK-801-induced reduction of number of social episodes” value is “reversed the effect of MK-801”.
`COc1ccc(-c2cc3onc(-c4ccncc4)c3c(=O)n2C)cc1` [MMPIP, 6-(4-Methoxyphenyl)-5-methyl-3-(4-pyridinyl)-isoxazolo(4,5-c)pyridin-4(5H)-one]: the IC50 on mGlu7 receptor is 0.34 µM; against Cytochrome P450 1A2 it was > 10 µM; at Cytochrome P450 2D6, > 10 µM. In data set [1], the “Metabolic stability (microsomes, mice)” value turned out to be 49.78. The microsomal CLint in data set [1] came to 38.7 µL/min/mg. Also, the figures for the “Before-after effect of the drug” value in data set [2] and in data set [3] were 123% and 100,1%, respectively. Moreover, the “Before-after effect, WILD group higher than KO animals” value in data set [2] (WILD vs. KO) was “about 23%”. The “S (factor proportional to the slope of the curve)” value in data set [2] is on record as 9.37 ± 0.83; in data set [3], 8.6 ± 1.01. In addition, the “Uh” value is on record as 26.93 ± 1.6 in data set [2] and 22.1 ± 1.4 in data set [3]. Besides, the “Vmax” value was 2.53 ± 0.3^∗∗∗ in data set [2] and 2.16 ± 0.2 in data set [3]. In addition, the “Effect on DOI-induced head twitches, acute” value in data set [4] (5 mg/kg i.p.), in data set [4] (10 mg/kg i.p.) and in data set [4] (15 mg/kg i.p.) was “significantly reduced DOI-induced head twitches” in each case. Besides, the “Effect … (10 days) administration” value in data set [4] (5 mg/kg) and in data set [4] (10 mg/kg) was “statistically significant effect” in each case. Further, the “Effect on MK-801-induced reduction of number of social episodes” value in data set [5] (5, 10, and 20 mg/kg i.p.) is recorded as “no effect”. Further, in data set [5] (5, 10, and 20 mg/kg i.p.), the “Effect on MK-801-induced reduction of time of interaction” value was “no effect”.
